Where “and” joins values, the source holds several entries; their conditions need not be identical. Identical values can stand only once.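 Five concentrations, 48 hours, 96-well plates. At the GI50, growth is halved. TGI denotes the concentration required for complete inhibition of growth.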

Test systems include MALME-3M melanoma; NCI-H460 lung; TK-10 renal; OVCAR-8 ovarian; SF-295 CNS; U251 CNS; HCT-116 colon; MDA-MB-231 breast; CCRF-CEM leukemia; UACC-257 melanoma.
Assay in all cases: growth of human tumour cells (NCI), 48 h

For `COc1ccccc1Cn1cc2c(c1-c1ccccc1)CCc1cnoc1-2`, the GI50 in the assay with MALME-3M melanoma is 1.39 µM; in the assay on NCI-H460 lung it was 2.65 µM; in the assay with TK-10 renal, 4.32 µM; in the assay with OVCAR-8 ovarian it was 6.22 µM; with SF-295 CNS it was 1.09 µM; with U251 CNS, 4.06 µM. Moreover, the GI50 with HCT-116 colon was 2.8 µM; with MDA-MB-231 breast, 3.96 µM; with CCRF-CEM leukemia, 2.85 µM; in the assay with UACC-257 melanoma it was 20.2 µM. For the same molecule, the TGI in the assay on MALME-3M melanoma is greater than 100 µM; in the assay with NCI-H460 lung, 18.1 µM; in the assay with TK-10 renal, greater than 100 µM; with OVCAR-8 ovarian, greater than 100 µM; in the assay with SF-295 CNS, 9.52 µM; in the assay with U251 CNS, greater than 100 µM. For the same molecule, the TGI with HCT-116 colon, in the assay on MDA-MB-231 breast, in the assay on CCRF-CEM leukemia and with UACC-257 melanoma was greater than 100 µM each time.

Regarding `COc1cc2c3c(n(CCCCOC(=O)C(Cl)(Cl)Cl)c(=O)c2cc1OC)-c1cc2c(cc1C3=O)OCO2`, the GI50 with MALME-3M melanoma is greater than 100 µM; with NCI-H460 lung, 2.41 µM; in the assay with TK-10 renal, greater than 100 µM; in the assay on OVCAR-8 ovarian it was 27.9 µM; in the assay on SF-295 CNS, 8.71 µM; in the assay on U251 CNS it was 21.5 µM. The GI50 in the assay with HCT-116 colon is 17 µM; in the assay with MDA-MB-231 breast, 50.3 µM; in the assay with CCRF-CEM leukemia it was 10.5 µM; in the assay with UACC-257 melanoma it was greater than 100 µM. For the same molecule, the TGI with MALME-3M melanoma, in the assay with NCI-H460 lung, in the assay on TK-10 renal, in the assay with OVCAR-8 ovarian, in the assay with SF-295 CNS and in the assay on U251 CNS was greater than 100 µM throughout. The TGI in the assay with HCT-116 colon was 34.2 µM; with MDA-MB-231 breast, greater than 100 µM; in the assay on CCRF-CEM leukemia, greater than 100 µM; in the assay on UACC-257 melanoma it was greater than 100 µM.

With `NCCCn1c2c(c3ccc([N+](=O)[O-])cc3c1=O)C(=O)c1cc(Br)ccc1-2`, the GI50 with MALME-3M melanoma was 0.103 µM; in the assay on NCI-H460 lung it was 0.000746 µM; with TK-10 renal, 0.267 µM and 0.28 µM; with OVCAR-8 ovarian, 0.0271 µM; with SF-295 CNS, 0.163 µM; in the assay with U251 CNS, 0.0202 µM. The GI50 in the assay on HCT-116 colon was 0.185 µM and 0.0484 µM; in the assay on MDA-MB-231 breast, 0.0364 µM and 0.0168 µM; with CCRF-CEM leukemia, 0.0033 µM; in the assay on UACC-257 melanoma, 0.456 µM. The TGI in the assay on NCI-H460 lung was 0.113 µM; in the assay on TK-10 renal it was 0.942 µM; in the assay with OVCAR-8 ovarian, 0.188 µM; in the assay on U251 CNS it was 0.111 µM and 0.014 µM; in the assay with HCT-116 colon, 0.348 µM and 0.207 µM; with MDA-MB-231 breast, 0.218 µM and 0.103 µM. The TGI with CCRF-CEM leukemia amounted to 0.0159 µM.

With `CC(C)(C)c1ccc(O)c(CN(Cc2cc(C(C)(C)C)ccc2O)c2ccccc2)c1`, the TGI is 29.9 µM in the assay on MALME-3M melanoma; 30.9 µM in the assay on NCI-H460 lung; 31.5 µM with TK-10 renal; 37.5 µM in the assay on OVCAR-8 ovarian; 37.4 µM in the assay on SF-295 CNS; 28.4 µM in the assay on U251 CNS. Further, the TGI is 33.9 µM in the assay with HCT-116 colon, 31.7 µM in the assay with MDA-MB-231 breast, greater than 100 µM with CCRF-CEM leukemia and 12.4 µM in the assay on UACC-257 melanoma.

As to `CCc1oc2ccccc2c1C(=O)c1cc(I)c(O)c(I)c1`, the GI50 in the assay with MALME-3M melanoma was 1.41 µM; in the assay on NCI-H460 lung, 2.63 µM; with TK-10 renal, 9.81 µM; in the assay with OVCAR-8 ovarian, 4.9 µM; in the assay on SF-295 CNS it was 2.05 µM; with U251 CNS it was 4.4 µM. In addition, the GI50 in the assay with HCT-116 colon was 2.91 µM; with MDA-MB-231 breast, 5.64 µM; in the assay with CCRF-CEM leukemia, 2.05 µM; in the assay on UACC-257 melanoma, 6.13 µM. Besides, the TGI worked out at 7.9 µM in the assay with MALME-3M melanoma; 8.94 µM with NCI-H460 lung; 23.4 µM in the assay with TK-10 renal; 28.5 µM in the assay on OVCAR-8 ovarian; 7.65 µM in the assay on SF-295 CNS; 18.3 µM in the assay with U251 CNS. The TGI was found to be 12 µM in the assay with HCT-116 colon, 20.8 µM in the assay on MDA-MB-231 breast, 15.4 µM with CCRF-CEM leukemia and 21.1 µM with UACC-257 melanoma.

With `Cc1ccc(NC(=O)c2sc3nc(C)c(C(O)c4ccccc4)cc3c2N)cc1` (configuration not stated), the GI50 with MALME-3M melanoma was 0.476 µM; in the assay on NCI-H460 lung, 0.359 µM; in the assay on TK-10 renal, 2.12 µM; in the assay on OVCAR-8 ovarian, 0.611 µM; in the assay with SF-295 CNS, 0.339 µM; with U251 CNS, 0.384 µM. For the same molecule, the GI50 in the assay on HCT-116 colon was 0.381 µM; in the assay with MDA-MB-231 breast, 0.777 µM; with CCRF-CEM leukemia, 0.375 µM; in the assay on UACC-257 melanoma it was 4.09 µM. Also, the TGI with MALME-3M melanoma is 53.7 µM; with NCI-H460 lung, 5.32 µM; with TK-10 renal, 36.4 µM; in the assay on OVCAR-8 ovarian, greater than 100 µM; with SF-295 CNS, 4.03 µM; in the assay with U251 CNS, 22.4 µM. Also, the TGI was 12.2 µM in the assay on HCT-116 colon, 21.8 µM in the assay with MDA-MB-231 breast, greater than 49.7 µM with CCRF-CEM leukemia and greater than 100 µM with UACC-257 melanoma.

`COc1cc2c3c(n(CCNCCCNCCn4c5c(c6cc(OC)c(OC)cc6c4=O)C(=O)c4ccccc4-5)c(=O)c2cc1OC)-c1ccccc1C3=O`: the GI50 is 0.884 µM with MALME-3M melanoma; 0.0719 µM in the assay with NCI-H460 lung; 2.9 µM in the assay with TK-10 renal; 0.0355 µM in the assay on OVCAR-8 ovarian; 0.105 µM in the assay with SF-295 CNS; 0.0733 µM in the assay on U251 CNS. For the same molecule, the GI50 in the assay on HCT-116 colon is 0.0254 µM; with MDA-MB-231 breast, 0.178 µM; in the assay on CCRF-CEM leukemia, less than 0.0174 µM; with UACC-257 melanoma, 73.3 µM. The TGI came to 6.19 µM with MALME-3M melanoma; 4.68 µM in the assay on NCI-H460 lung; 21.7 µM in the assay on TK-10 renal; 5.82 µM with OVCAR-8 ovarian; 2.11 µM in the assay with SF-295 CNS; 1.49 µM in the assay on U251 CNS. For the same molecule, the TGI was 1.16 µM in the assay on HCT-116 colon, 2.1 µM in the assay with MDA-MB-231 breast, 1.63 µM with CCRF-CEM leukemia and greater than 100 µM with UACC-257 melanoma.

`COC(=O)[C@H](Cc1c[nH]c2ccccc12)NC(=O)[C@@H](OC)[C@@H]1Cc2cc3cc(OC4CC(OC5CC(O)C(O)C(C)O5)C(O)C(C)O4)c(C)c(O)c3c(O)c2C(=O)[C@H]1OC1CC(OC2CC(OC3CC(C)(O)C(O)C(C)O3)C(O)C(C)O2)C(O)C(C)O1` (some centres not stated): the GI50 is 0.0039 µM in the assay on MALME-3M melanoma; 0.00611 µM in the assay on NCI-H460 lung; 0.0651 µM in the assay on TK-10 renal; 0.0097 µM with OVCAR-8 ovarian; 0.0112 µM with SF-295 CNS; 0.00642 µM in the assay on U251 CNS. Moreover, the GI50 in the assay with HCT-116 colon was 0.00537 µM; in the assay on MDA-MB-231 breast it was 0.00975 µM; in the assay on CCRF-CEM leukemia, 0.0064 µM; with UACC-257 melanoma, 0.00662 µM. The TGI was 0.0184 µM in the assay on MALME-3M melanoma; greater than 5.24 µM with NCI-H460 lung; greater than 6.46 µM in the assay with TK-10 renal; greater than 16.5 µM in the assay on OVCAR-8 ovarian; 3.21 µM in the assay on SF-295 CNS; greater than 16.5 µM with U251 CNS. Moreover, the TGI in the assay with HCT-116 colon was greater than 16.5 µM; in the assay on MDA-MB-231 breast it was 0.603 µM; in the assay on CCRF-CEM leukemia, greater than 6.28 µM; with UACC-257 melanoma, 0.124 µM.

On to `Cc1nc(-c2ccccc2)c(-c2ccccc2)s1`, for which the TGI in the assay with MALME-3M melanoma was 46.8 µM; in the assay with NCI-H460 lung, 42.2 µM; with TK-10 renal, 52.8 µM; with OVCAR-8 ovarian it was greater than 100 µM; in the assay on SF-295 CNS it was greater than 100 µM; with U251 CNS, 29.5 µM. Further, the TGI with HCT-116 colon worked out at 68.8 µM; in the assay with MDA-MB-231 breast it was 69.6 µM; in the assay with CCRF-CEM leukemia it was 40.3 µM; with UACC-257 melanoma, 79.9 µM.

For `C=C1C(=O)O[C@H]2[C@H]1CC/C(COC(=O)c1cc3ccccc3s1)=C\CC[C@@]1(C)O[C@@H]21`, the GI50 is 1.82 µM with MALME-3M melanoma; 2.2 µM with NCI-H460 lung; 1.55 µM in the assay with TK-10 renal; 1.8 µM in the assay on OVCAR-8 ovarian; 3.33 µM with SF-295 CNS; 1.52 µM with U251 CNS. In addition, the GI50 with HCT-116 colon is 0.591 µM; with MDA-MB-231 breast it was 1.97 µM; with CCRF-CEM leukemia, 0.403 µM; in the assay on UACC-257 melanoma it was 1.77 µM. Moreover, the TGI with MALME-3M melanoma was 3.75 µM; with NCI-H460 lung, 5.55 µM; in the assay with TK-10 renal it was 2.93 µM; in the assay with OVCAR-8 ovarian it was 5.14 µM; with SF-295 CNS, 12.8 µM; in the assay on U251 CNS, 3.03 µM. Also, the TGI in the assay on HCT-116 colon was 2.1 µM; in the assay with MDA-MB-231 breast, 4.35 µM; in the assay on CCRF-CEM leukemia it was 2.45 µM; in the assay with UACC-257 melanoma it was 3.61 µM.

Turning to `CC1(C)N=C(N)N=C(N)N1c1ccc(OCc2ccc(S(=O)(=O)F)c(Cl)c2)c(Cl)c1`, the GI50 was 1.97 µM in the assay on MALME-3M melanoma; 0.426 µM with NCI-H460 lung; 59.2 µM in the assay with TK-10 renal; 0.735 µM in the assay on OVCAR-8 ovarian; 3.88 µM with SF-295 CNS; 2.9 µM in the assay on U251 CNS. The GI50 in the assay on HCT-116 colon is 0.51 µM; in the assay on MDA-MB-231 breast, greater than 100 µM; in the assay with CCRF-CEM leukemia, 1.06 µM; with UACC-257 melanoma, 2.38 µM. Besides, the TGI with MALME-3M melanoma, with NCI-H460 lung, with TK-10 renal, in the assay on OVCAR-8 ovarian, with SF-295 CNS and in the assay on U251 CNS was greater than 100 µM throughout. Besides, the TGI with HCT-116 colon, in the assay on MDA-MB-231 breast, in the assay with CCRF-CEM leukemia and in the assay on UACC-257 melanoma was greater than 100 µM each time.

For `O=c1[nH]c(=O)n(C2OC(CO)C(O)C(O)C2O)cc1F` (configuration not stated), the TGI in the assay on MALME-3M melanoma, in the assay on NCI-H460 lung, with TK-10 renal, in the assay on OVCAR-8 ovarian, with SF-295 CNS and in the assay on U251 CNS was greater than 100 µM each time. For the same molecule, the TGI in the assay with HCT-116 colon, in the assay on MDA-MB-231 breast, in the assay on CCRF-CEM leukemia and with UACC-257 melanoma was greater than 100 µM each time.

These data come from PubChem BioAssay (NCI).
